Paper PMC12751000, “Dual Agonist/Antagonist Modulation of α9-Containing Nicotinic Acetylcholine Receptors by 2‑Ammoniumethyl Ethers of Stilbenol and Stilbenol Analogues” (Journal of Medicinal Chemistry, 2025)
Entries after “also recorded” stand apart in the source; their conditions may differ. Read-outs that look alike come from different tables or passages of the source. Where a SMILES comes first, the peptide text is derived from it. Bridges are numbered along the chain shown (N, C = ends).

Columns and labels:
chick α7 nAChRs = conditions: cited from earlier work
[1] = tested on: BzATP-induced release of IL-1β from human monocytic THP-1 cells; experiment: BzATP-induced IL-1β release by LPS-primed human monocytic THP-1 cells (ELISA); format: cell-based; conditions: for Effect on the inhibitory effect of ACh on BzATP-induced IL-1β release: LPS 1 μg/mL 5 h, BzATP 100 μM 40 min; for Effect on BzATP-induced IL-1β release in the absence of ACh: LPS-primed THP-1
Protocol: THP-1 cells were primed with lipopolysaccharide (LPS; 1 μg/mL, 5 h) followed by stimulation with the P2X7 receptor agonist BzATP (2′/3′-O-(4-benzoylbenzoyl)-adenosine-5′-triphosphate, tri(triethylammonium) salt) for 40 min to induce IL-1β release, which was quantified by ELISA.
Experiments on human monocytic THP-1 cells (German Collection of Microorganisms and Cell Cultures, Braunschweig, Germany, Cat# ACC16) were performed as described before. […] The supernatants were collected and stored for later IL-1β measurements using the Human IL-1β/IL-1F2 DuoSet ELISA from R&D Systems (Minneapolis MN, USA, Cat# DY201). Cell viability was assessed by measuring lactate dehydrogenase (LDH) activity in the supernatants using the CytoTox 96 Non-Radioactive Cytotoxicity Assay (Promega, Madison WI, USA; Cat# G1780). LDH activities were expressed as a percentage of total LDH activity from lysed control cells. Data on the BzATP-induced IL-1β release and LDH activity were analyzed using SPSS (Version 29.0.2.0, IBM, Armonk, NY, United States) and visualized using Inkscape version 0.48.5 r10040 (Free and Open Source Software licensed under the GPL). The data were analyzed first by the Friedman test.

hα7 = conditions: ref: more recent studies, citation number not given, cited from earlier work
α7-nAChR = conditions: read-out: α7-nAChR affinity (Ki); ref: previously reported, citation number not given; cited from earlier work
hα9α10 nAChRs [2] = target: T1, hα9α10 nAChRs (Homo sapiens, UniProt Q9GZZ6+Q9UGM1); experiment: Two-electrode voltage clamp, inhibition of ACh-evoked currents at hα9α10 nAChRs expressed in Xenopus laevis oocytes; format: cell-based
T1 construct: host or cells: Xenopus laevis oocytes, cRNA-injected (α9:α10 cRNA ratio 1:1)
From the text: (§1) The protocols were approved by the Animal Ethics Committees of the Victor Chang Cardiac Research Institute, Sydney, and the University of Wollongong (project number AE 20/17). Human α9 and α10 nAChR clones were obtained from OriGene (Rockville, MD, USA) and subcloned into the pT7TS vector. The human α7 nAChR clone, in the plasmid pMXT, was kindly provided by J. Lindstrom (University of Pennsylvania, USA). Constructs of human nAChR subunits were linearized and used for in vitro cRNA transcription with the SP6/T7 mMessage mMachine transcription kit (AMBION, Forster City, CA, USA).
(§2) The cRNA concentration was verified spectrophotometrically and by gel electrophoresis.
(§3) Electrophysiological recordings were conducted 2–5 days after cRNA injection using a HiClamp automated two-electrode voltage-clamp screening system (MultiChannel Systems GmbH, Reutlingen, Germany) with a holding potential of –80 mV. To prevent the activation of endogenous Ca^2+-activated chloride channels due to the Ca^2+ permeability of α9-containing nAChRs, oocytes were preincubated with 100 μM BAPTA-AM for approximately 3 h.
For concentration–response experiments assessing modulation of ACh-evoked responses, oocytes were initially superfused with ND96 or ND115 solution, depending on the receptor subtype. […] After ACh application, a 3 min washout was performed. Oocytes were then incubated with the test compound for 5 min, followed by coapplication of the compound and ACh in a continuously flowing bath solution. All compounds were prepared in ND96 or ND115 with 0.1% bovine serum albumin (BSA).

hα7 nAChRs [3] = target: T2, hα7 nAChRs (Homo sapiens, UniProt P36544); experiment: Two-electrode voltage clamp, inhibition of ACh-evoked currents at hα7 nAChRs in Xenopus laevis oocytes; format: cell-based
T2 construct: host or cells: Xenopus laevis oocytes, cRNA-injected (10 ng)

hα9 nAChRs [4] = target: T3, hα9 nAChRs (Homo sapiens, UniProt Q9UGM1); experiment: Two-electrode voltage clamp, compound-evoked currents at hα9 nAChRs in Xenopus laevis oocytes; format: cell-based; conditions: compound applied alone
T3 construct: host or cells: Xenopus laevis oocytes, cRNA-injected

hα9α10 nAChRs [5] = target: T1, hα9α10 nAChRs; experiment: Two-electrode voltage clamp, compound-evoked currents (compound applied alone) at hα9α10 nAChRs in Xenopus laevis oocytes; format: cell-based; conditions: compound applied alone (300 pM to 30 μM), normalized to response at highest concentration
From the text: as §1, §2, §3
Concentration–response experiments assessing compound-evoked currents were performed by initially superfusing α9-containing nAChRs oocytes with ND115 solution. Test compounds were then applied at concentrations ranging from 300 pM to 30 μM, followed by a 3 min washout period.

hα7 nAChRs [6] = target: T2, hα7 nAChRs; experiment: Two-electrode voltage clamp, compound-evoked currents at hα7 nAChRs in Xenopus laevis oocytes; format: cell-based; conditions: compound applied alone
Protocol: Additionally, five compounds of the series were tested on the homomeric hα7 and hα9 nAChRs.
as §1, §2, §3

hα9 nAChRs [7] = target: T3, hα9 nAChRs; experiment: Two-electrode voltage clamp, inhibition of ACh-evoked currents at hα9 nAChRs in Xenopus laevis oocytes; format: cell-based
hα9α10 nAChRs [8] = target: T1, hα9α10 nAChRs; experiment: cell-based

T3 sequence (Q9UGM1 26-479 limits assumed): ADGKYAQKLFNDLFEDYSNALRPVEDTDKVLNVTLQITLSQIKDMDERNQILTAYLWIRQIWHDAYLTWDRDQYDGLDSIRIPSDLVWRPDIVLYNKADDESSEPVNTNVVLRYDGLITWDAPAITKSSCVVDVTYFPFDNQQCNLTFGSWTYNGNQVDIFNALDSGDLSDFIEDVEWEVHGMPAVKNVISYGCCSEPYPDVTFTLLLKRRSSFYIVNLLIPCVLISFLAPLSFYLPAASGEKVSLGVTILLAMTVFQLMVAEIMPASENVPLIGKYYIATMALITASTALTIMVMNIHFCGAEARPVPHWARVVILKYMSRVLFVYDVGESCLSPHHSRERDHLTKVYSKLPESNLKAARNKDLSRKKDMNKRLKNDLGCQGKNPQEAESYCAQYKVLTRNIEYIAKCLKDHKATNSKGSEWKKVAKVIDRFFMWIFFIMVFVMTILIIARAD
T1 sequence (Q9UGM1 26-479 limits assumed): as above
T1 sequence (Q9GZZ6 25-450): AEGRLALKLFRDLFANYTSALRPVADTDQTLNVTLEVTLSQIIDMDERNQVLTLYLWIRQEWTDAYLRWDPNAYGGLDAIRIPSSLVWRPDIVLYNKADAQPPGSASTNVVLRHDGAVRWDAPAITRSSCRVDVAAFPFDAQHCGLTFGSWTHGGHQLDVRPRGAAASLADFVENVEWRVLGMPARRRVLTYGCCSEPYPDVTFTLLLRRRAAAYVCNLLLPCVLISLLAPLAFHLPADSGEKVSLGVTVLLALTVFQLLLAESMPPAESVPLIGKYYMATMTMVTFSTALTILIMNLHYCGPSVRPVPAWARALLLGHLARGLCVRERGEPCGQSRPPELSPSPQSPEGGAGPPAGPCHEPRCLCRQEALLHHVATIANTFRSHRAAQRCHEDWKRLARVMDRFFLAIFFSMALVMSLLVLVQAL
T2 sequence (P36544 23-502): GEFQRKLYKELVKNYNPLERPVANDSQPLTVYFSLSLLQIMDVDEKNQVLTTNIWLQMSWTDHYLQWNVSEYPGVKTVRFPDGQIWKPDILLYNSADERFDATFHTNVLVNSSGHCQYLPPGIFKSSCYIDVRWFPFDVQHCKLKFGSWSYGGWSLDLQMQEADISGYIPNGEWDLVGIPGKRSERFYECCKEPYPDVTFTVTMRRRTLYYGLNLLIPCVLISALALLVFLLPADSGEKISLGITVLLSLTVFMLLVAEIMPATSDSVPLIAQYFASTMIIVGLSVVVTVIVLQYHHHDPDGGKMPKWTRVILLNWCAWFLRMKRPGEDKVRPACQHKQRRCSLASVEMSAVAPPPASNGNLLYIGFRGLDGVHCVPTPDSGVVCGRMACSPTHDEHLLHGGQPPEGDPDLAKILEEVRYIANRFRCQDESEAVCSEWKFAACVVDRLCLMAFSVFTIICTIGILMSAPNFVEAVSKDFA

For `CC[N+](CC)(CC)CCOc1ccc(/C=C/c2ccccc2)cc1` [Compound 1, 2-triethylammonium ethyl ether of 4-stilbenol], the IC50 (chick α7 nAChRs; chick α7, 100 μM ACh, ref: citation number not given) is listed as 90 to 110 nM, the “Currents evoked when applied alone” value (chick α7 nAChRs; wild-type chick α7 nAChRs, ref: previous findings, citation number not given) is listed as “did not evoke currents” and the “Effect on the inhibitory effect of ACh on BzATP-induced IL-1β release” value (“Effect on the inhibitory effect of ACh” for short) ([1]; compound 100 pM + ACh 10 μM) is listed as “efficiently antagonized the inhibitory effect of ACh”. The “Effect on BzATP-induced IL-1β release in the absence of ACh” value (“Effect on BzATP-induced IL-1β release” for short) ([1]; compound 100 pM) was “only slightly reduced”, the “Effect on the inhibitory effect of ACh” value ([1]; compound 100 nM + ACh 10 μM) was “efficiently antagonized the inhibitory effect of ACh” and the “Effect on BzATP-induced IL-1β release” value ([1]; compound 100 nM) was “only slightly reduced; also recorded: failed to reduce IL-1β release”. The IC50 (hα7; 200 μM ACh) was 41 nM, the IC50 (hα7; 1 mM ACh) was 1990 nM and the Ki (α7-nAChR) was 104 nM.

In the case of `C[N+](C)(CCOc1ccc(COc2ccccc2)cc1)C1CCCCC1.[I-]` [Compound 22, N,N-Dimethyl-N-(2-(4-(phenoxymethyl)phenoxy)ethyl)cyclohexanaminium Iodide], the “Effect on the inhibitory effect of ACh” value ([1]; compound 100 pM + ACh 10 μM) is reported as “efficiently antagonized the inhibitory effect of ACh”, the “Effect on BzATP-induced IL-1β release” value ([1]; compound 100 pM) is reported as “minor reduction” and the “Effect on the inhibitory effect of ACh” value ([1]; compound 100 nM + ACh 10 μM) is reported as “mild antagonistic effects”. The “Effect on BzATP-induced IL-1β release” value ([1]; compound 100 nM) was “effectively and significantly inhibited”, the “IC50 ratio to Cpd 1” value (hα9α10 nAChRs [2]) was 0.3 and the “n H (Hill coefficient of inhibition)” value (hα9α10 nAChRs [2]; 6 μM ACh) was 1.7. For the same compound, the IC50 (hα9α10 nAChRs [2]; 6 μM ACh, 5 min preincubation with compound, holding potential −80 mV) was 16 nM, the “IC50 ratio to Cpd 1” value (hα7 nAChRs [3]) was 0.8 and the “n H (Hill coefficient of inhibition)” value (hα7 nAChRs [3]; 100 μM ACh) was 1.5. For the same compound, the IC50 (hα7 nAChRs [3]; 100 μM ACh, 5 min preincubation) was 336 nM, the EC50 (hα9 nAChRs [4]) was “did not elicit any current; also recorded: lacked agonist activity; also recorded: No activity” and the EC50 (hα9α10 nAChRs [5]) was “failed to activate; also recorded: lacked agonist activity; also recorded: No activity”. The EC50 (hα7 nAChRs [6]) was “lacked agonist activity; also recorded: No activity”, the “IC50 ratio to Cpd 1” value (hα9 nAChRs [7]) was 0.1 and the “n H (Hill coefficient of inhibition)” value (hα9 nAChRs [7]; 50 μM ACh) was 1.5. The IC50 (hα9 nAChRs [7]; 50 μM ACh, 5 min preincubation) was 26.2 nM.

For `CC[C@H](C)[C@@H]1NC(=O)[C@H](CC(=O)O)NC(=O)[C@@H]2CCCN2C(=O)[C@H](CC(N)=O)NC(=O)[C@H](CC(N)=O)NC(=O)[C@H](C(C)C)NC(=O)[C@H](CO)NC(=O)[C@@H]2CSSC[C@H](NC(=O)CN)C(=O)N[C@@H](CSSC[C@@H](C(N)=O)NC1=O)C(=O)N[C@@H](CO)C(=O)N[C@@H](Cc1c[nH]cn1)C(=O)N1CCC[C@H]1C(=O)N[C@@H](C)C(=O)N2` [α-conotoxin Mr1.1] (H-GCCSHPACSVNNPDIC-NH2; disulfide 2-8, 3-16), the “Hill coefficient (n H)” value (hα9α10 nAChRs [8]) was 1.3.

Compound `CC[C@H](C)[C@@H]1NC(=O)[C@H](CC(=O)O)NC(=O)[C@@H]2CCCN2C(=O)[C@H](CC(N)=O)NC(=O)[C@H](CC(N)=O)NC(=O)[C@H](C(C)C)NC(=O)[C@H](CO)NC(=O)[C@@H]2CSSC[C@H](NC(=O)CN)C(=O)N[C@@H](CSSC[C@@H](C(N)=O)NC1=O)C(=O)N[C@@H](CO)C(=O)N[C@@H](Cc1cnc[nH]1)C(=O)N1CCC[C@H]1C(=O)N[C@@H](C)C(=O)N2` [α-conotoxin Mr1.1] (H-GCCSHPACSVNNPDIC-NH2; disulfide 2-8, 3-16) has an IC50 (hα9α10 nAChRs [8]) of 82.9 nM.
